In patent US20210255193A1, “LYSINE REACTIVE PROBES AND USES THEREOF” (The Scripps Research Institute, priority 2017, published 2021):

Key:
Test in all cases: competitive isoTOP-ABPP
Assay type in all cases: binding
[1] = target: T1, CUL2 Cullin-2 (Homo sapiens, UniProt Q13617); conditions: for isoTOP-ABPP reactivity ratio at lysine Q13617_K489 / isoTOP-ABPP ratio (R) at liganded lysine Q13617_K489: 50 uM, in vitro; for isoTOP-ABPP reactivity ratio at lysine Q13617_K489: 231 sol; for isoTOP-ABPP ratio (R) at liganded lysine Q13617_K489: sol, 231
T1 construct: isoTOP-ABPP experiments performed in cell lysates (in vitro); endogenous in cells; host or cells: soluble proteome of human cancer cell lines (MDA-MB-231, Ramos, Jurkat)
T1 sequence (Q13617 whole entry): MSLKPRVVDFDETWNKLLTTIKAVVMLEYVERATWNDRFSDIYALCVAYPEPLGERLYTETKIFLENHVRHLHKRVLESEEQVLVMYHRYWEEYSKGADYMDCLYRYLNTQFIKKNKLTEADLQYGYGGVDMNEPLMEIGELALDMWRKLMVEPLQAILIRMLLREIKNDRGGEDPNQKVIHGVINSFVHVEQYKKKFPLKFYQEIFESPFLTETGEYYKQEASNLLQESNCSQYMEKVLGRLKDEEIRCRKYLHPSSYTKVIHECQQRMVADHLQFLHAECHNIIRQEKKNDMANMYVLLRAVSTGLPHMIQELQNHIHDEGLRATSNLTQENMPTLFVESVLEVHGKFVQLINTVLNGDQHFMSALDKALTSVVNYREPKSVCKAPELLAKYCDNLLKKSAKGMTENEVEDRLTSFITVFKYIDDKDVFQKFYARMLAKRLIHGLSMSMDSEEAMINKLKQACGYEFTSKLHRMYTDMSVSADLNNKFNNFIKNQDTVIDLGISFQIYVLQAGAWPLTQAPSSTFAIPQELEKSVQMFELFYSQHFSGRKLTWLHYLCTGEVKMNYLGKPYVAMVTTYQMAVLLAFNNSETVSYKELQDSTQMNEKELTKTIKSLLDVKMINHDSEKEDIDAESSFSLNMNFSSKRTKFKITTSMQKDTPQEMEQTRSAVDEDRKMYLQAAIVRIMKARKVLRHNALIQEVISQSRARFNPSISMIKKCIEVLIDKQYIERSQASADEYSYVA
In short: (§1)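 Lysate + fragment (50 μM activated ester / 100 μM guanidinylating agent) or DMSO → 0.1 mM STP-alkyne, 1 h, RT → CuAAC to TEV tags (compound light, DMSO heavy) → LC-MS. R = heavy/light MS1 area; liganded lysine if R≥4.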

[2] = target: T2, ENOPH1 Enolase-phosphatase E1 (Homo sapiens, UniProt Q9UHY7); conditions: for isoTOP-ABPP reactivity ratio at lysine Q9UHY7_K111 / isoTOP-ABPP ratio (R) at liganded lysine Q9UHY7_K111: 50 uM, in vitro; for isoTOP-ABPP reactivity ratio at lysine Q9UHY7_K111: 231 sol; for isoTOP-ABPP ratio (R) at liganded lysine Q9UHY7_K111: sol, 231
T2 construct: endogenous in cells; host or cells: MDA-MB-231 (soluble fraction of lysate)
T2 sequence (Q9UHY7 whole entry): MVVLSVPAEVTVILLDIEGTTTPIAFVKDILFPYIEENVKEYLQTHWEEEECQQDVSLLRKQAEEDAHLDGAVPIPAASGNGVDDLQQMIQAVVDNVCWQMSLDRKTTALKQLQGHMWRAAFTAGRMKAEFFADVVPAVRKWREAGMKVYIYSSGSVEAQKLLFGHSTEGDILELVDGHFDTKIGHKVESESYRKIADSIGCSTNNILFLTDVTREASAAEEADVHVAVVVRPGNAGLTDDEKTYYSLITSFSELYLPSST
In short: as §1

[3] = target: T3, G6PD Glucose-6-phosphate 1-dehydrogenase (Homo sapiens, UniProt P11413); conditions: for isoTOP-ABPP reactivity ratio at lysine P11413_K171 / isoTOP-ABPP ratio (R) at liganded lysine P11413_K171: 50 uM, in vitro; for isoTOP-ABPP reactivity ratio at lysine P11413_K171: 231 sol; for isoTOP-ABPP ratio (R) at liganded lysine P11413_K171: sol, 231
T3 construct: isoTOP-ABPP experiments performed in cell lysates (in vitro); endogenous in cells; host or cells: MDA-MB-231 soluble lysate
T3 sequence (P11413 whole entry): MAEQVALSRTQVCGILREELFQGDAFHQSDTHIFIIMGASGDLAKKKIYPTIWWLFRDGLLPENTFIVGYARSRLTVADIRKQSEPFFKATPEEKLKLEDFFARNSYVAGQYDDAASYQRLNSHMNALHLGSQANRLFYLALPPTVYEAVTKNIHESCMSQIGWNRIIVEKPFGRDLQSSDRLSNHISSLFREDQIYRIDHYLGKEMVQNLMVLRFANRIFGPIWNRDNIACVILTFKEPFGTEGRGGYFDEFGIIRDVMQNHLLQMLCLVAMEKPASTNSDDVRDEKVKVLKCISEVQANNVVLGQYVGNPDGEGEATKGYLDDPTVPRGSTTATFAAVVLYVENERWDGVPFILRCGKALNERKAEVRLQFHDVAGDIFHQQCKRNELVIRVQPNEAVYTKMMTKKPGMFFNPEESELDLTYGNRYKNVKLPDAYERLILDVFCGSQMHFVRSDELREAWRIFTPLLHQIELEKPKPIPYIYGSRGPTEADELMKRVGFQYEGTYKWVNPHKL
In short: as §1

[4] = target: T4, GLOD4 Glyoxalase domain-containing protein 4 (Homo sapiens, UniProt Q9HC38); conditions: for isoTOP-ABPP reactivity ratio at lysine Q9HC38_K305 / isoTOP-ABPP ratio (R) at liganded lysine Q9HC38_K305: 50 uM, in vitro; for isoTOP-ABPP reactivity ratio at lysine Q9HC38_K305: 231 sol; for isoTOP-ABPP ratio (R) at liganded lysine Q9HC38_K305: sol, 231
T4 construct: endogenous in cells; host or cells: MDA-MB-231 (soluble fraction of lysate)
T4 sequence (Q9HC38 1-313): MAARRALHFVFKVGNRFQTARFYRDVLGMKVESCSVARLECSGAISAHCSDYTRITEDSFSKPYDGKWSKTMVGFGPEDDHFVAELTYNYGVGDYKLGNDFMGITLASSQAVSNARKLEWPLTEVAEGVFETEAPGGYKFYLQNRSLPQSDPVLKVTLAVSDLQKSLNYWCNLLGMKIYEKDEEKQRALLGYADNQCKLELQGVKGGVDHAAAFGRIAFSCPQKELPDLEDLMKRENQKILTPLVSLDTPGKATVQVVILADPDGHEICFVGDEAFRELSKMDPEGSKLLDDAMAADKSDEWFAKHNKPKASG
In short: as §1

[5] = target: T5, HNRNPK Heterogeneous nuclear ribonucleoprotein K (Homo sapiens, UniProt P61978); conditions: for isoTOP-ABPP reactivity ratio at lysine P61978_K405 / isoTOP-ABPP ratio (R) at liganded lysine P61978_K405: 50 uM, in vitro; for isoTOP-ABPP reactivity ratio at lysine P61978_K405: 231 sol; for isoTOP-ABPP ratio (R) at liganded lysine P61978_K405: sol, 231
T5 construct: isoTOP-ABPP experiments performed in cell lysates (in vitro); endogenous in cells; host or cells: soluble proteome of human cancer cell lines (MDA-MB-231, Ramos, Jurkat)
In short: as §1

[6] = target: T6, RINT1 RAD50-interacting protein 1 (Homo sapiens, UniProt Q6NUQ1); conditions: for isoTOP-ABPP reactivity ratio at lysine Q6NUQ1_K771 / isoTOP-ABPP ratio (R) at liganded lysine Q6NUQ1_K771: 50 uM, in vitro; for isoTOP-ABPP reactivity ratio at lysine Q6NUQ1_K771: 231 sol; for isoTOP-ABPP ratio (R) at liganded lysine Q6NUQ1_K771: sol, 231
T6 construct: isoTOP-ABPP experiments performed in cell lysates (in vitro); endogenous in cells; host or cells: soluble proteome of human cancer cell lines (MDA-MB-231; Ramos and Jurkat also prepared)
T6 sequence (Q6NUQ1 whole entry): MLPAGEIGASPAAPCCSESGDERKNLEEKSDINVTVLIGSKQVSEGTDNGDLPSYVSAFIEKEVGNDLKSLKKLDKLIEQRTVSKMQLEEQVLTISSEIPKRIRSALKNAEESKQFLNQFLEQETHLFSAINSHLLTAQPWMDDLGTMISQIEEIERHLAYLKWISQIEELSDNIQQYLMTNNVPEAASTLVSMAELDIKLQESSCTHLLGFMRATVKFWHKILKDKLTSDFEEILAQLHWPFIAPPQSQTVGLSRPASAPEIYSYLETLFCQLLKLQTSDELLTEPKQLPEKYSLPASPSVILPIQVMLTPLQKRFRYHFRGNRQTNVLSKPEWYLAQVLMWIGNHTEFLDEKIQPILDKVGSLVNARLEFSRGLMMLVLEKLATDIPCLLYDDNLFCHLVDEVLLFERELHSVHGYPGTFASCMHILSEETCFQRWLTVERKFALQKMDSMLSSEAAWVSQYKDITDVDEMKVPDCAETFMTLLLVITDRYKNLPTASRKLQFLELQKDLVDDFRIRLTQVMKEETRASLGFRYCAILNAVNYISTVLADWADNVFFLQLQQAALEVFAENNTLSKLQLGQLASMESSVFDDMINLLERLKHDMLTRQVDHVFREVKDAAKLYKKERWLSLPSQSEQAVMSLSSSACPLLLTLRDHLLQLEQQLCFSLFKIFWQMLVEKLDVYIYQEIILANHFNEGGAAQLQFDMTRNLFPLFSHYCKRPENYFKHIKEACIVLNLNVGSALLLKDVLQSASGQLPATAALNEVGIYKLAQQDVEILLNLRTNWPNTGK
In short: as §1

[7] = target: T7, RQCD1 Cell differentiation protein RCD1 homolog (Homo sapiens, UniProt Q92600); conditions: for isoTOP-ABPP reactivity ratio at lysine Q92600_K230 / isoTOP-ABPP ratio (R) at liganded lysine Q92600_K230: 50 uM, in vitro; for isoTOP-ABPP reactivity ratio at lysine Q92600_K230: 231 sol; for isoTOP-ABPP ratio (R) at liganded lysine Q92600_K230: sol, 231
T7 construct: isoTOP-ABPP experiments performed in cell lysates (in vitro); endogenous in cells; host or cells: soluble proteome of human cancer cell lines (MDA-MB-231; Ramos and Jurkat also prepared)
T7 sequence (Q92600 whole entry): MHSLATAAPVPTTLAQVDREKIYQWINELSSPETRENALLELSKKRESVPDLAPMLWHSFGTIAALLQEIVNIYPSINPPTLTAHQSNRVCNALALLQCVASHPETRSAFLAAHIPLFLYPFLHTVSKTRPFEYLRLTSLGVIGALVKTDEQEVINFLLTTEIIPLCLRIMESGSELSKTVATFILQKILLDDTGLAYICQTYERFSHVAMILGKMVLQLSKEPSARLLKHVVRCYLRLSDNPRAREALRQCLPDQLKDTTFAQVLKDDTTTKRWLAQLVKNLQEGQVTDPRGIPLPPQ
In short: as §1

Row | SMILES | isoTOP-ABPP ratio (R) at liganded lysine Q13617_K489 [1] | isoTOP-ABPP ratio (R) at liganded lysine Q9UHY7_K111 [2] | isoTOP-ABPP ratio (R) at liganded lysine P11413_K171 [3] | isoTOP-ABPP ratio (R) at liganded lysine Q9HC38_K305 [4] | isoTOP-ABPP ratio (R) at liganded lysine P61978_K405 [5] | isoTOP-ABPP ratio (R) at liganded lysine Q6NUQ1_K771 [6] | isoTOP-ABPP ratio (R) at liganded lysine Q92600_K230 [7] | other results
1 | O=C(CCc1cn(-c2ccccc2)nc1-c1ccccc1)Oc1ccc([N+](=O)[O-])cc1[N+](=O)[O-] [fragment 29, 2,4-Dinitrophenyl 3-(1,3-diphenyl-1H-pyrazol-4-yl)propanoate] |  |  |  |  |  |  |  | isoTOP-ABPP reactivity ratio at lysine Q13617_K489 [1]: 1.2; isoTOP-ABPP reactivity ratio at lysine Q9UHY7_K111 [2]: 0.8; isoTOP-ABPP reactivity ratio at lysine P11413_K171 [3]: 0.9; isoTOP-ABPP reactivity ratio at lysine Q9HC38_K305 [4]: 0.9; isoTOP-ABPP reactivity ratio at lysine P61978_K405 [5]: 20.0; isoTOP-ABPP reactivity ratio at lysine Q6NUQ1_K771 [6]: 1.2; isoTOP-ABPP reactivity ratio at lysine Q92600_K230 [7]: 1.0
2 | O=C(Oc1ccc([N+](=O)[O-])cc1[N+](=O)[O-])C(c1ccccc1)c1ccccc1 [fragment 30, 2,4-Dinitrophenyl 2,2-diphenylacetate] |  |  |  |  |  |  |  | isoTOP-ABPP reactivity ratio at lysine Q13617_K489 [1]: 1.1; isoTOP-ABPP reactivity ratio at lysine Q9UHY7_K111 [2]: 0.8; isoTOP-ABPP reactivity ratio at lysine P11413_K171 [3]: 3.9; isoTOP-ABPP reactivity ratio at lysine Q9HC38_K305 [4]: 0.6; isoTOP-ABPP reactivity ratio at lysine P61978_K405 [5]: 0.9; isoTOP-ABPP reactivity ratio at lysine Q6NUQ1_K771 [6]: 1.7; isoTOP-ABPP reactivity ratio at lysine Q92600_K230 [7]: 1.6
3 | O=C(Oc1ccc([N+](=O)[O-])cc1[N+](=O)[O-])C1CCN(C(=O)OCc2ccccc2)CC1 [fragment 34, 1-Benzyl 4-(2,4-dinitrophenyl) piperidine-1,4-dicarboxylate] | 1.1 | 0.9 | 0.9 | 20.0 | 1.4 | 1.3 | 0.8 | 
4 | O=C(Oc1ccc([N+](=O)[O-])cc1[N+](=O)[O-])c1ccc2ccccc2n1 [fragment 35, 2,4-Dinitrophenyl quinoline-2-carboxylate] | 0.9 | 1.0 | 1.7 | 0.4 | 0.9 | 1.7 | 0.9 | 
5 | O=C(Oc1ccc([N+](=O)[O-])cc1[N+](=O)[O-])c1ccc(-c2ccccc2)cc1 [fragment 37, 2,4-Dinitrophenyl [1,1′-biphenyl]-4-carboxylate] | 1.0 | 0.9 | 0.9 | 0.6 | 0.9 | 1.3 | 0.8 | 
6 | O=C(CC12CC3CC(CC(C3)C1)C2)Oc1ccc([N+](=O)[O-])cc1[N+](=O)[O-] [fragment 38, 2,4-Dinitrophenyl 2-(adamantan-1-yl)acetate] | 1.4 | 1.1 | 0.9 | 20.0 | 20.0 | 1.2 | 0.9 | 
7 | O=C(Oc1ccc([N+](=O)[O-])cc1[N+](=O)[O-])c1ccc(Oc2ccccc2)cc1 [fragment 39, 2,4-Dinitrophenyl 4-phenoxybenzoate] | 20.0 | 0.8 | 1.1 | 0.8 | 0.8 | 1.5 | 0.8 | 
8 | O=C(Oc1ccc([N+](=O)[O-])cc1[N+](=O)[O-])c1ccccc1Nc1cccc(C(F)(F)F)c1 [fragment 40, 2,4-Dinitrophenyl 2-((3-(trifluoromethyl)phenyl)amino)benzoate] | 20.0 | 0.7 | 1.9 | 0.8 | 0.9 | 1.1 | 0.9 | 
9 | CC(C)(C)OC(=O)NCCCC(=O)Oc1ccc([N+](=O)[O-])cc1[N+](=O)[O-] [fragment 41, 2,4-Dinitrophenyl 4-((tert-butoxycarbonyl)amino)butanoate] | 1.0 | 1.1 | 1.0 | 20.0 | 1.0 | 0.8 | 2.6 | 
10 | CC(=O)Oc1ccc([N+](=O)[O-])cc1[N+](=O)[O-] [fragment 43, 2,4-Dinitrophenyl acetate] | 1.2 | 0.9 | 1.0 | 0.7 | 1.3 | 1.0 | 6.8 | 
11 | N#Cc1ccc(C(=O)Oc2ccc([N+](=O)[O-])cc2[N+](=O)[O-])cc1 [fragment 44, 2,4-Dinitrophenyl 4-cyanobenzoate] |  |  |  |  |  |  |  | isoTOP-ABPP ratio, lysine Q13617_K489 ([1]; 50 uM_231_sol_in vitro): 0.8; isoTOP-ABPP ratio, lysine Q9UHY7_K111 ([2]; 50 uM_231_sol_in vitro): 0.9; isoTOP-ABPP ratio, lysine P11413_K171 ([3]; 50 uM_231_sol_in vitro): 1.3; isoTOP-ABPP ratio, lysine Q9HC38_K305 ([4]; 50 uM_231_sol_in vitro): 0.5; isoTOP-ABPP ratio, lysine P61978_K405 ([5]; 50 uM_231_sol_in vitro): 1.0; isoTOP-ABPP ratio, lysine Q6NUQ1_K771 ([6]; 50 uM_231_sol_in vitro): 1.7; isoTOP-ABPP ratio, lysine Q92600_K230 ([7]; 50 uM_231_sol_in vitro): 1.0
12 | O=C(CCc1ccc2c(c1)OCO2)Oc1ccc([N+](=O)[O-])cc1[N+](=O)[O-] [fragment 45, 2,4-Dinitrophenyl 3-(benzo[d][1,3]dioxol-5-yl)propanoate] |  |  |  |  |  |  |  | isoTOP-ABPP ratio, lysine Q13617_K489 ([1]; 50 uM_231_sol_in vitro): 1.2; isoTOP-ABPP ratio, lysine Q9UHY7_K111 ([2]; 50 uM_231_sol_in vitro): 1.1; isoTOP-ABPP ratio, lysine P11413_K171 ([3]; 50 uM_231_sol_in vitro): 1.1; isoTOP-ABPP ratio, lysine Q9HC38_K305 ([4]; 50 uM_231_sol_in vitro): 0.7; isoTOP-ABPP ratio, lysine P61978_K405 ([5]; 50 uM_231_sol_in vitro): 1.1; isoTOP-ABPP ratio, lysine Q6NUQ1_K771 ([6]; 50 uM_231_sol_in vitro): 1.0; isoTOP-ABPP ratio, lysine Q92600_K230 ([7]; 50 uM_231_sol_in vitro): 1.7
13 | COC(=O)NC(=NC(=O)OCC1c2ccccc2-c2ccccc21)n1cccn1 [fragment 49, N-Methoxycarbonyl-N′-9-fluorenylmethoxycarbonyl-pyrazole-1-carboxamidine] |  |  |  |  |  |  |  | isoTOP-ABPP ratio, lysine Q13617_K489 ([1]; 100 uM_231_sol_in vitro): 1.1; isoTOP-ABPP ratio, lysine Q9UHY7_K111 ([2]; 100 uM_231_sol_in vitro): 20.0; isoTOP-ABPP ratio, lysine P11413_K171 ([3]; 100 uM_231_sol_in vitro): 1.2; isoTOP-ABPP ratio, lysine Q9HC38_K305 ([4]; 100 uM_231_sol_in vitro): 1.2; isoTOP-ABPP ratio, lysine P61978_K405 ([5]; 100 uM_231_sol_in vitro): 1.9; isoTOP-ABPP ratio, lysine Q6NUQ1_K771 ([6]; 100 uM_231_sol_in vitro): 1.1; isoTOP-ABPP ratio, lysine Q92600_K230 ([7]; 100 uM_231_sol_in vitro): 1.1
14 | CC(C)(C)OC(=O)N=C(NC(=O)OC(C)(C)C)n1cccn1 [fragment 50, reference compound] |  |  |  |  |  |  |  | isoTOP-ABPP ratio, lysine Q13617_K489 ([1]; 100 uM_231_sol_in vitro): 1.0; isoTOP-ABPP ratio, lysine Q9UHY7_K111 ([2]; 100 uM_231_sol_in vitro): 15.1; isoTOP-ABPP ratio, lysine P11413_K171 ([3]; 100 uM_231_sol_in vitro): 1.1; isoTOP-ABPP ratio, lysine Q9HC38_K305 ([4]; 100 uM_231_sol_in vitro): 1.1; isoTOP-ABPP ratio, lysine P61978_K405 ([5]; 100 uM_231_sol_in vitro): 1.3; isoTOP-ABPP ratio, lysine Q6NUQ1_K771 ([6]; 100 uM_231_sol_in vitro): 1.1; isoTOP-ABPP ratio, lysine Q92600_K230 ([7]; 100 uM_231_sol_in vitro): 1.0
15 | NC(=O)c1cc(C(F)(F)F)cc(C(F)(F)F)c1 [fragment 51, reference compound] |  |  |  |  |  |  |  | isoTOP-ABPP ratio, lysine Q13617_K489 ([1]; 50 uM_231_sol_in vitro): 1.1; isoTOP-ABPP ratio, lysine Q9UHY7_K111 ([2]; 50 uM_231_sol_in vitro): 0.9; isoTOP-ABPP ratio, lysine P11413_K171 ([3]; 50 uM_231_sol_in vitro): 0.9; isoTOP-ABPP ratio, lysine Q9HC38_K305 ([4]; 50 uM_231_sol_in vitro): 0.9; isoTOP-ABPP ratio, lysine P61978_K405 ([5]; 50 uM_231_sol_in vitro): 1.2; isoTOP-ABPP ratio, lysine Q6NUQ1_K771 ([6]; 50 uM_231_sol_in vitro): 0.9; isoTOP-ABPP ratio, lysine Q92600_K230 ([7]; 50 uM_231_sol_in vitro): 0.9
